Common to all, as to format: functional
For one experiment, the system named is Bacillus subtilis. Put plainly: Antimicrobial activity against Bacillus subtilis MTCC 121 assessed as growth inhibition after 24 hr by broth microdilution method.
Another experiment has as its system Escherichia coli. Put plainly: Antimicrobial activity against Escherichia coli MTCC 43 assessed as growth inhibition after 24 hr by broth microdilution method. On the technique in general: Dilution methods test growth across graded concentrations, often in twofold steps.
A further experiment concerns Pichia kudriavzevii. The experiment is described as follows: Antimicrobial activity against Pichia kudriavzevii MTCC 231 assessed as growth inhibition after 24 hr by broth microdilution method.
Another experiment concerns Aspergillus niger. The experiment is described as follows: Antimicrobial activity against Aspergillus niger MTCC 404 assessed as growth inhibition after 5 days by broth microdilution method.
Another experiment relates to Candida albicans. Put plainly: Antimicrobial activity against Candida albicans MTCC 3017 assessed as growth inhibition after 24 hr by broth microdilution method.
The next experiment deals with Trichophyton rubrum. Put plainly: Antimicrobial activity against Trichophyton rubrum MTCC 296 assessed as growth inhibition after 5 days by broth microdilution method.
In the next experiment the test system is Staphylococcus aureus. The experiment is described as follows: Antimicrobial activity against Staphylococcus aureus MTCC 3160 assessed as growth inhibition after 24 hr by broth microdilution method.
For another experiment, the system named is Aspergillus parasiticus. Put plainly: Antimicrobial activity against Aspergillus parasiticus MTCC 2797 assessed as growth inhibition after 5 days by broth microdilution method. As to conditions: MTCC 2797, 120 h.
A further experiment concerns Micrococcus luteus. Put plainly: Antimicrobial activity against Micrococcus luteus MTCC 2470 assessed as growth inhibition after 24 hr by broth microdilution method.
Another experiment has as its system Enterobacter cloacae. Put plainly: Antimicrobial activity against Enterobacter cloacae MTCC 509 assessed as growth inhibition after 24 hr by broth microdilution method.
For experiment [1], the system named is Radical scavenging activity. The experiment is described as follows: Antioxidant activity assessed as inhibition of DPPH radical formation at 2 mg/ml after 30 min by spectrophotometric analysis. (Loss of DPPH colour is used to gauge radical scavenging.)
A further experiment has as its system Aspergillus sydowii. The experiment is described as follows: Antimicrobial activity against Aspergillus sydowii MTCC 4335 assessed as growth inhibition after 5 days by broth microdilution method. The note with it: MTCC 4335, 120 h.
The subject of a further experiment is Burkholderia cepacia. Put plainly: Antimicrobial activity against Burkholderia cepacia MTCC 438 assessed as growth inhibition after 24 hr by broth microdilution method.
A further experiment relates to Pseudomonas aeruginosa. The experiment is described as follows: Antimicrobial activity against Pseudomonas aeruginosa MTCC 424 assessed as growth inhibition after 24 hr by broth microdilution method.
The subject of another experiment is Klebsiella pneumoniae. Put plainly: Antimicrobial activity against Klebsiella pneumoniae MTCC 109 assessed as growth inhibition after 24 hr by broth microdilution method.

Converted amounts (≈) assume the structure as drawn. The source made the active and inactive calls. No cut-off for these calls is given here.

Usually MIC stands for the least concentration at which growth counts as inhibited. For orientation: inhibition means the percentage by which the read-out fell short of the control. For the compound `C(=C\c1ccc2c(c1)OCO2)/C=N/c1nccs1`, the MIC was determined as 120 µM (≈ 31 µg/mL) in the experiment with Bacillus subtilis (MTCC 121, 24 h); 970 µM (≈ 251 µg/mL) in the experiment with Escherichia coli (MTCC 43, 24 h); 970 µM (≈ 251 µg/mL) in the experiment on Pichia kudriavzevii (MTCC 231, 24 h); 3870 µM (≈ 1000 µg/mL) in the experiment on Aspergillus niger (MTCC 404, 120 h); 970 µM (≈ 251 µg/mL) in the experiment on Candida albicans (MTCC 3017, 24 h); 970 µM (≈ 251 µg/mL) in the experiment with Trichophyton rubrum (MTCC 296, 120 h). The minimal inhibitory concentration (MIC) with Staphylococcus aureus (MTCC 3160, 24 h) was 480 µM (≈ 124 µg/mL); in the experiment with Aspergillus parasiticus it was 3870 µM (≈ 1000 µg/mL); in the experiment with Micrococcus luteus (MTCC 2470, 24 h), 970 µM (≈ 251 µg/mL); with Enterobacter cloacae (MTCC 509, 24 h) it was 480 µM (≈ 124 µg/mL); in the experiment with Aspergillus sydowii, 1930 µM (≈ 499 µg/mL); in the experiment on Burkholderia cepacia (MTCC 438, 24 h), 1930 µM (≈ 499 µg/mL). Also, the MIC in the experiment on Klebsiella pneumoniae (MTCC 109, 24 h) was 970 µM (≈ 251 µg/mL). In experiment [1], the inhibition amounted to 3.91%. Besides, the MIC entry in the experiment with Pseudomonas aeruginosa is “inactive”.

Consider `COc1ccc(/N=C/C=C/c2ccc3c(c2)OCO3)cc1OC`, for which the MIC entry in the experiment with Bacillus subtilis, with Escherichia coli, in the experiment with Pichia kudriavzevii, in the experiment with Aspergillus niger, with Candida albicans and with Trichophyton rubrum was “inactive” throughout. Moreover, the MIC entry in the experiment on Staphylococcus aureus, in the experiment on Micrococcus luteus, with Enterobacter cloacae, with Burkholderia cepacia, in the experiment with Pseudomonas aeruginosa and in the experiment with Klebsiella pneumoniae was “inactive” in each case. Besides, the MIC in the experiment on Aspergillus parasiticus came to 1600 µM (≈ 498 µg/mL); in the experiment with Aspergillus sydowii, 3210 µM (≈ 999 µg/mL). Moreover, in experiment [1], the inhibition turned out to be 15.4%.

In the case of `CCOc1ccc2nc(/N=C/C=C/c3ccc4c(c3)OCO4)sc2c1`, the MIC was determined as 1420 µM (≈ 500 µg/mL) in the experiment with Bacillus subtilis (MTCC 121, 24 h); 1420 µM (≈ 500 µg/mL) in the experiment with Pichia kudriavzevii (MTCC 231, 24 h); 1420 µM (≈ 500 µg/mL) in the experiment on Candida albicans (MTCC 3017, 24 h); 1420 µM (≈ 500 µg/mL) in the experiment on Trichophyton rubrum (MTCC 296, 120 h); 710 µM (≈ 250 µg/mL) with Staphylococcus aureus (MTCC 3160, 24 h); 710 µM (≈ 250 µg/mL) in the experiment on Aspergillus parasiticus. For the same compound, the MIC with Micrococcus luteus (MTCC 2470, 24 h) was 710 µM (≈ 250 µg/mL); in the experiment with Aspergillus sydowii, 710 µM (≈ 250 µg/mL); with Burkholderia cepacia (MTCC 438, 24 h) it was 1420 µM (≈ 500 µg/mL). Besides, the MIC entry in the experiment with Escherichia coli, in the experiment on Aspergillus niger, in the experiment with Enterobacter cloacae, in the experiment on Pseudomonas aeruginosa and with Klebsiella pneumoniae was “inactive” throughout. Besides, the inhibition in experiment [1] was 0.24%.
